# Experimental data reported in US20220257633A1, “METHOD OF TREATING AGE-RELATED MACULAR DEGENERATION” (THE PROVOST, FELLOWS, FOUNDATION SCHOLARS, & THE O, priority 2021, published 2022).
# Tested on: CD45+CD66b−CD14+CD16+ monocytes
# Experiment: Surface CD86 on monocytes by flow cytometry
# Type: cell-based, human
# Details: PBMCs treated with MCP-1 for 24 h; CD86 MFI
# Method: PBMCs were labelled for the investigation of monocytes with the following fluorochrome-labelled antibodies: anti-CD16 (3G8) anti-CD86 (FM95) anti-CD45 (2D1); anti-CD66b (G10F5); CD14 (Tuk4); CD80 (2D10); (Biolegend or Miltenyi). Each staining well contained 4×10^5 cells; cells were stained with LIVE/DEAD Aqua (Molecular Probes) followed by staining for 20 min on ice, washed, and analyzed by flow cytometry immediately. Flow cytometry was carried out on a BD LSR Fortessa cell analyzer and analyzed using FlowJo software (Tree Star).
substance,measurement,value
MCP-1: chemokine monocyte chemoattractant protein CCL2/MCP-1,increase of CD86 membrane expression,~1.4 fold
